Laboratory results published in patent publication US20160176880A1, “SUBSTITUTED IMIDAZO[1,2-A]PYRAZINECARBOXAMIDES AND USE THEREOF” (BAYER PHARMA AKTIENGESELLSCHAFT, priority 2013, published 2016).
Structures can show the parent of a compound that is named as a salt.

Target: T1, recombinant guanylate cyclase reporter cell line (Rattus norvegicus, UniProt P19686+P20595)
T1 construct: expressed in transfected cells
T1 sequence (P19686 1-690): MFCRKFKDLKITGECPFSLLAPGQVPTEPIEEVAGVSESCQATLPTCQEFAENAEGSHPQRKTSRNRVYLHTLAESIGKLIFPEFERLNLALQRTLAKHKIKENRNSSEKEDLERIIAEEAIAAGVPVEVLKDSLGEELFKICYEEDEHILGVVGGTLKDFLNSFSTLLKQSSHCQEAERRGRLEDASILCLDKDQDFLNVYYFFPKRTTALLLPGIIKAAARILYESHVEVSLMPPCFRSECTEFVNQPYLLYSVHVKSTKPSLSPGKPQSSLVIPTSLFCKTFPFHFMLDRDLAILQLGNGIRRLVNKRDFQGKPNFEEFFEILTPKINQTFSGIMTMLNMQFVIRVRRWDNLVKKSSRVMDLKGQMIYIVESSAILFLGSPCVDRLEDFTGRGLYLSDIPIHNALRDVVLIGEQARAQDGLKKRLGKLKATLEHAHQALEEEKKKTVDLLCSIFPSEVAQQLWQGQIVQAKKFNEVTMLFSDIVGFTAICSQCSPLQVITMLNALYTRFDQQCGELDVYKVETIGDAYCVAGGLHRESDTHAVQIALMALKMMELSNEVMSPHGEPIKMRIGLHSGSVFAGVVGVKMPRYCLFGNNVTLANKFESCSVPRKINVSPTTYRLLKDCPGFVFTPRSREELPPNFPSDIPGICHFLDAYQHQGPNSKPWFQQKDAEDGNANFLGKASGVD
T1 sequence (P20595 1-619): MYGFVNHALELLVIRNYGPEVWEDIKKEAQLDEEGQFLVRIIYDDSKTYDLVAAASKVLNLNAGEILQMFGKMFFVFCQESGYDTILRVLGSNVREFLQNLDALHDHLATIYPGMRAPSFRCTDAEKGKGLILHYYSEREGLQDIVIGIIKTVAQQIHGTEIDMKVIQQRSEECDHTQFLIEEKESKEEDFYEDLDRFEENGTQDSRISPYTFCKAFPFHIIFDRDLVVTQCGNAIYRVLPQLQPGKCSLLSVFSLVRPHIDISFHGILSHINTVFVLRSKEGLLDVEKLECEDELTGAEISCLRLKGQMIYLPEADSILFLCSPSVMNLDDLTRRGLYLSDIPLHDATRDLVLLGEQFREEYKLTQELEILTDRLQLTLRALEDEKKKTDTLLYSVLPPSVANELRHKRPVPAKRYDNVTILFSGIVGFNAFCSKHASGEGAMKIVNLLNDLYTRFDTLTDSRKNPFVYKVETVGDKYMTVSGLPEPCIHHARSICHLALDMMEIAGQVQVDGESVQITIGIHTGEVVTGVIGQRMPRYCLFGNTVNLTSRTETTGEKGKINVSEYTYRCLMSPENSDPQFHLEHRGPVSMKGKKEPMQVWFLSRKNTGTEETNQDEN
Experiment: Effect on a recombinant guanylate cyclase reporter cell line
Assay type: cell-based
Conditions: MEC = minimum effective concentration; in some cases mean values for individual determinations
Method: B-2. Effect on a Recombinant Guanylate Cyclase Reporter Cell Line
The cellular action of the compounds of the invention is determined using a recombinant guanylate cyclase reporter cell line, as described in F. Wunder et al., Anal. Biochem. 339, 104-112 (2005).
Representative MEC values (MEC=minimum effective concentration) for the compounds of the invention are shown in the table below (in some cases as mean values for individual determinations): […]

MEC [µM] | SMILES
3.0 | Cc1nc2c(OCC3CCC3)nccn2c1C(=O)NCc1ccc(F)c(F)c1 [Example 48, 8-(Cyclobutylmethoxy)-N-(3,4-difluorobenzyl)-2-methylimidazo[1,2-a]pyrazine-3-carboxamide]
1.0 | Cc1cn2c(C(=O)NCCCCCC#N)c(C)nc2c(OCc2c(F)cccc2F)n1 [Example 49, N-(5-Cyanopentyl)-8-[(2,6-difluorobenzyl)oxy]-2,6-dimethylimidazo[1,2-a]pyrazine-3-carboxamide]
3.0 | C=CCONC(=O)c1c(C)nc2c(OCc3c(F)cccc3F)nc(C)cn12 [Example 51, N-(allyloxy)-8-[(2,6-difluorobenzyl)oxy]-2,6-dimethylimidazo[1,2-a]pyrazine-3-carboxamide trifluoroacetate]
0.3 | Cc1cn2c(C(=O)NNc3ccc(F)cc3)c(C)nc2c(OCc2c(F)cccc2F)n1 [Example 52, 8-[(2,6-difluorobenzyl)oxy]-N′-(4-fluorophenyl)-2,6-dimethylimidazo[1,2-a]pyrazine-3-carbohydrazide]
3.0 | Cc1cn2c(C(=O)NNC(=O)CN(C)C)c(C)nc2c(OCc2c(F)cccc2F)n1 [Example 53, 8-[(2,6-difluorobenzyl)oxy]-N′-[(dimethylamino)acetyl]-2,6-dimethylimidazo[1,2-a]pyrazine-3-carbohydrazide]
